Read-outs that look alike come from different tables or passages of the source. Non-standard residues stand in square brackets, D forms with d. Residues, ends and D or L forms follow the SMILES beside them. No end group written: not given here. NMeF = CN[C@@H](Cc1ccccc1)C(=O)O
Tests used:
[1] = cited from earlier work
[2] = target: T1, human NPFF1 receptor (Homo sapiens, UniProt Q9GZQ6); test: [125I]D-Tyr-NPFF radioligand binding, HEK-293 cells expressing human NPFF1; conditions: Table 3, read-out: pKi ± SEM, human NPFF1 (converted)
T1 construct: To obtain a full-length hNPFF1 construct in the correct orientation; expressed in transfected cells; host or cells: HEK-293 (transient)
Protocol: (§1) Transfected cells from culture flasks are scraped into 5 ml of 20 mM Tris-HCl, 5 mM EDTA, pH 7.5, and lysed by sonication. The cell lysates are centrifuged at 1000 rpm for 5 min. at 4° C., and the supernatant is centrifuged at 30,000×g for 20 min. at 4° C. The pellet is suspended in binding buffer (50 mM Tris-HCl, 60 mM NaCl, 1 mM MgCl, 33 μM EDTA, 33 μM EGTA at pH 7.4 supplemented with 0.2% BSA, 2 μg/ml aprotinin, and 20 μM bestatin). Optimal membrane suspension dilutions, defined as the protein concentration required to bind less than 10% of the added radioligand, are added to 96-well polpropylene microtiter plates containing ^3H-labeled compound, unlabeled compounds, and binding buffer to a final volume of 250 μl. In equilibrium saturation binding assays membrane preparations are incubated in the presence of increasing concentrations of [^3H]-labeled compound. The binding affinities of the different compounds are determined in equilibrium competition binding assays, using [^125I]-labeled compound in the presence of ten to twelve different concentrations of the displacing ligands. Competition assay: 50 pM radioligand, 10-12 points. Binding reaction mixtures are incubated for 2 hr at 25° C., and the reaction stopped by filtration through a double layer of GF filters treated with 0.1% polyethyleneimine, using a cell harvester. Wash buffer: 50 mM Tris-HCl, 0.1% BSA. Radioactivity may be measured by scintillation counting and data are analyzed by a computerized non-linear regression program. Non-specific binding is defined as the amount of radioactivity remaining after incubation of membrane protein in the presence of 1 μM final concentration […]. Protein concentration may be measured by the Bradford method using Bio-Rad Reagent, with bovine serum albumin as a standard.
(§2) Additional pharmacological evaluation was done using 293 human embryonic kidney cells (HEK-293 cells) transiently expressing the genes encoding the human NPFF1, NPFF2, and rat NPFF1 receptors, as well as Cos-7 cells expressing the rat NPFF2 receptors.

[3] = target: T2, human NPFF2 receptor (Homo sapiens, UniProt Q9Y5X5); test: [125I]D-Tyr-NPFF radioligand binding, HEK-293 cells expressing human NPFF2; conditions: Table 3; HEK-293 cells; [125I]D-Tyr-NPFF; read-out: pKi ± SEM, human NPFF2 (converted)
T2 construct: BO89, was determined to be a full length clone with no point mutations; expressed in transfected cells; host or cells: HEK-293 (transient)
Protocol: as §1, §2

[4] = target: T3, rat NPFF2 receptor (Rattus norvegicus, UniProt Q9EQD2); test: [125I]D-Tyr-NPFF radioligand binding, cloned rat NPFF2; conditions: Table 3; title HEK-293 cells (text: Cos-7); [125I]D-Tyr-NPFF; read-out: pKi ± SEM, rat NPFF2 (converted)
T3 construct: The full-length rat NPFF2 clone was amplified from rat spinal cord cDNA; expressed in transfected cells; host or cells: COS-7
Protocol: as §1, §2

[5] = target: T4, rat NPFF1 receptor (Rattus norvegicus, UniProt Q9EP86); test: [125I]D-Tyr-NPFF radioligand binding, HEK-293 cells expressing rat NPFF1; parameters: expressed in transfected cells; conditions: Table 3, read-out: pKi ± SEM, rat NPFF1 (converted)
Protocol: as §1, §2

[6] = target: T3, rat NPFF2 receptor; test: Functional activity at cloned rat NPFF2 in COS-7 cells; format: cell-based
[7] = target: T5, human NPY Y1 receptor (Homo sapiens, UniProt P25929); conditions: cited from earlier work
T5 sequence (P25929 1-384): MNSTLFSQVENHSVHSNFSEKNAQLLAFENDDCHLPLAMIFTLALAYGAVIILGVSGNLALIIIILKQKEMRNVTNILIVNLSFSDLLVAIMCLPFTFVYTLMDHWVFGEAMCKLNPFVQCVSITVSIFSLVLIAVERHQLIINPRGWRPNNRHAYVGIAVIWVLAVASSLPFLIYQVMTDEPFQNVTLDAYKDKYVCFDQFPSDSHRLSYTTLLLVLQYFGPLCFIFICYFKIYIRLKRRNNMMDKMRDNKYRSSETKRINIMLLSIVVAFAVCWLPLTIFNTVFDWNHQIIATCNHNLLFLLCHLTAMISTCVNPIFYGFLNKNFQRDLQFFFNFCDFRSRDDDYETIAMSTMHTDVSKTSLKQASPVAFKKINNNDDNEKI

[8] = target: T4, rat NPFF1 receptor; test: Functional activity at cloned rat NPFF1 in COS-7 cells; format: cell-based; parameters: expressed in transfected cells; host or cells: COS-7 (transient)
[9] = target: T6, NPFF-1 receptor (Rattus norvegicus, UniProt Q9EP86); test: Total inositol phosphate release, Cos-7 cells transiently transfected with NPFF1; format: cell-based
T6 construct: expressed in transfected cells; host or cells: COS-7 (transient), alone or co-transfected with Gq/Gz chimera

[10] = target: T7, NPFF1 (SNORF2) (Rattus norvegicus, UniProt Q9EP86); test: Voltage-clamp electrophysiology, Xenopus oocytes injected with SNORF2 (NPFF1) and chimeric Gαq/z RNA; format: cell-based; conditions: oocytes with SNORF2 + Gαq/z
T7 construct: linearized plasmids or PCR products containing the complete coding region of the genes; expressed in transfected cells; host or cells: Xenopus laevis oocytes injected with synthetic RNA (T7 transcripts)
Protocol: Oocytes were harvested from Xenopus laevis and injected with mRNA transcripts as previously described (Quick and Lester, 1994; Smith et al., 1997). […] Three to eight hours prior to recording, oocytes were injected with 500 pg Gαq/z mRNA in order to observe coupling to Ca^++ activated Cl^− currents. Dual electrode voltage clamp (Axon Instruments Inc.) was performed using 3 M KCl-filled glass microelectrodes having resistances of 1-2 Mohm. Unless otherwise specified, oocytes were voltage clamped at a holding potential of −80 mV. During recordings, oocytes were bathed in continuously flowing (1-3 ml/min) medium containing 96 mM NaCl, 2 mM KCl, 1.8 mM CaCl2, 1 mM MgCl2, and 5 mM HEPES, pH 7.5 (ND96). Drugs were applied either by local perfusion from a […] glass capillary tube fixed at a distance of 0.5 mm from the oocyte, or by switching from a series of gravity fed perfusion lines.
Heterologous expression of GPCRs in Xenopus oocytes has been widely used to determine the identity of signaling pathways activated by agonist stimulation (Gundersen et al., 1983; Takahashi et al., 1987). Activation of the phospholipase C (PLC) pathway is assayed by applying test compound in ND96 solution to oocytes previously injected with mRNA for the mammalian receptor and observing inward currents at a holding potential of −80 mV. The appearance of currents that reverse at −25 mV and display other properties of the Ca^++-activated Cl^− (chloride) channel is indicative of mammalian receptor-activation of PLC and release of IP3 and intracellular Ca^++.

[11] = system: normotensive rats; test: Blood pressure in anesthetized normotensive rats, intravenous administration; format: in vivo, rat; conditions: i.v.; NPFF 1.0 mg/kg, fPP 0.1 mg/kg
Excerpt: Rats were anesthetized with urethane and PE50 cannulae were placed in the femoral artery and vein for blood pressure monitoring and drug administration, respectively.

[12] = system: anesthetized rats; test: Distension-induced rhythmic contraction (DIRC) model of the micturition reflex in anesthetized rats; format: in vivo, rat; conditions: i.v.
Protocol: The effects of compounds on the micturition reflex were assessed in the “distension-induced rhythmic contraction” (DIRC) model in rats. This model of the micturition reflex has been described in previous publications (e.g. 72, 73).
Female Sprague Dawley rats weighing approximately 300 g were anesthetized with subcutaneous urethane (1.2 g/kg). The trachea was cannulated with PE240 tubing to provide a clear airway throughout the experiment. A midline abdominal incision was made and the left and right ureters were isolated. The ureters were ligated distally (to prevent escape of fluids from the bladder) and cannulated proximally with PE10 tubing. The incision was closed using 4-0 silk sutures, leaving the PE10 lines routed to the exterior for the elimination of urine. The bladder was canulated via the transurethral route using PE50 tubing inserted 2.5 cm beyond the urethral opening. This cannula was secured to the tail using tape and connected to a pressure transducer. To prevent leakage from the bladder, the cannula was tied tightly to the exterior urethral opening using 4-0 silk.
To initiate the micturition reflex, the bladder was first emptied by applying pressure to the lower abdomen, and then filled with normal saline in 100 μl increments (maximum=2 ml) until spontaneous bladder contractions occurred (typically 20-40 mmHg at a rate of one contraction every 2 to 3 minutes. Once a regular rhythm was established, vehicle (saline) or test compounds were administered intravenously to examine their effects on bladder activity. The effect of a compound which inhibited the micturition reflex was expressed as its “disappearance time”, defined as the time between successive bladder contractions in the presence of the test compound minus the time between contractions before compound administration.

T4 sequence (Q9EP86 whole entry): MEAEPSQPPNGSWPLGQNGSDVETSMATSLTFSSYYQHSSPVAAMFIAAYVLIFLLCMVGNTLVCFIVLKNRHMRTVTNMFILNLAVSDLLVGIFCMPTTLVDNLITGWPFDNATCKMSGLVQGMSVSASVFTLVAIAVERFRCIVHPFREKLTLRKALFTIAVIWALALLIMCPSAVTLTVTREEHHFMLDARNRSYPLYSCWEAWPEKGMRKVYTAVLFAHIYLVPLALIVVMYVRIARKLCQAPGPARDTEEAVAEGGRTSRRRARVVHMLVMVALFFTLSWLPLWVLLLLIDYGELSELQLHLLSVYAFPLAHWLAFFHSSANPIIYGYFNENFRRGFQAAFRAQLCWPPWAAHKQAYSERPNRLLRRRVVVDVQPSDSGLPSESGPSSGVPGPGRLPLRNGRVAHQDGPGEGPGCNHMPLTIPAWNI
T3 sequence (Q9EQD2 whole entry): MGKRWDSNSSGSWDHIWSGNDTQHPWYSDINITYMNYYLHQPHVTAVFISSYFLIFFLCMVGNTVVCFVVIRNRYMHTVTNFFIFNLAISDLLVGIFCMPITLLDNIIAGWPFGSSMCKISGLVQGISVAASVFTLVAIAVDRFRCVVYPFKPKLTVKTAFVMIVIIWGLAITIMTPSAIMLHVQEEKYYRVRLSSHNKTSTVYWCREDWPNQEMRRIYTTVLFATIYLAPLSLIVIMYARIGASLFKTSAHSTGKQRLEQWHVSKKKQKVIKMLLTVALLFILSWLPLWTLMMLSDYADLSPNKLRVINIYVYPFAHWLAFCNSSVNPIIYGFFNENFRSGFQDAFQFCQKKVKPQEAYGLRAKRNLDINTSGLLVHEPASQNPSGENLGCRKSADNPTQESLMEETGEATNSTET
T7 sequence (Q9EP86 whole entry): as the sequence (Q9EP86 whole entry) above
T6 sequence (Q9EP86 whole entry): as above
T1 sequence (Q9GZQ6 whole entry): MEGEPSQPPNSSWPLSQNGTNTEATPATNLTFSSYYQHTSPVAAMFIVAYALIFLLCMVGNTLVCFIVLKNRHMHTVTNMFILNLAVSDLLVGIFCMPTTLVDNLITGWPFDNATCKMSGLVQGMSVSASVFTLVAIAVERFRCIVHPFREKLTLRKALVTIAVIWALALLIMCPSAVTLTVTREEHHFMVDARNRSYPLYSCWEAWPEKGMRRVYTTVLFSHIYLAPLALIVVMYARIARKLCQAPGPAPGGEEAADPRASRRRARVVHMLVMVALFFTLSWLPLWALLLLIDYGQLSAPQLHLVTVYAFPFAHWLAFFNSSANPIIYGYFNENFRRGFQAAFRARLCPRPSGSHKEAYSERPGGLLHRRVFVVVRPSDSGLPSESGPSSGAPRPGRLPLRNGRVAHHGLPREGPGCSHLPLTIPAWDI
T2 sequence (Q9Y5X5 103-522): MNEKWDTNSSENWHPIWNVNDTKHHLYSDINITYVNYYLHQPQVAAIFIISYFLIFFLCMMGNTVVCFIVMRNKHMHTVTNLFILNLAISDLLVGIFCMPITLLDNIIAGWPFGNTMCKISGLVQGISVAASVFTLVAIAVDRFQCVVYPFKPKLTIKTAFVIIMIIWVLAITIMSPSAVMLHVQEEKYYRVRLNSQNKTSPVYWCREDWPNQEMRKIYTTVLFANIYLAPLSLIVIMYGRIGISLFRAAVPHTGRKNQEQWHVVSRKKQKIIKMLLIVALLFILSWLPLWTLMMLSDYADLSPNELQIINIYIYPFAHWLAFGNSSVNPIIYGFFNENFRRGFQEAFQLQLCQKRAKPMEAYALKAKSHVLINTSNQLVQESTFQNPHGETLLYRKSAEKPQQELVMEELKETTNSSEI

Compound: YLFQPQRF-NH2 [Y8Fa]
- degradation on incubation with rat spinal cord membranes ([1]; after 30 minutes): fully degraded

Compound: CC(C)C[C@H](NC(=O)[C@H](N)Cc1ccc(O)cc1)C(=O)N(C)[C@@H](Cc1ccccc1)C(=O)N[C@@H](CCC(N)=O)C(=O)N1CCC[C@H]1C(=O)N[C@@H](CCC(N)=O)C(=O)N[C@@H](CCCN=C(N)N)C(=O)N[C@@H](Cc1ccccc1)C(N)=O [(D-Tyr^1-(NMe)Phe^3)NPFF] (H-[dY]L[NMeF]QPQRF-NH2)
- Ki [2]: 7.94 nM
- Ki [3]: 3.16 nM
- Ki [4]: 2 nM
- stable after incubation with rat spinal cord membranes ([1]; 150 min. incubation): 90%
- Ki [5]: 1.58 nM

Compound: NC(N)=NCCC[C@H](NC(=O)C(c1ccccc1)c1ccccc1)C(=O)NCc1ccc(O)cc1 [BIBP3435]
- EC50 [6]: 5420 nM
- Maximum Effect (% NPFF), rat NPFF2 [6]: 71 % NPFF
- binding affinity, human NPY Y1 receptor [7]: > 10,000 nM
- Maximum Effect (% NPFF), rat NPFF1 ([8]; COS-7 cells): 0 % NPFF
- EC50 ([8]; COS-7 cells, read-out: EC50, rat NPFF1): > 10000 nM

Compound: CC(C)C[C@H](NC(=O)[C@@H](N)Cc1ccccc1)C(=O)N[C@@H](Cc1ccccc1)C(=O)N[C@@H](CCC(N)=O)C(=O)N1CCC[C@H]1C(=O)N[C@@H](CCC(N)=O)C(=O)N[C@@H](CCCNC(=N)N)C(=O)N[C@@H](Cc1ccccc1)C(N)=O [NPFF]
- Maximum Effect (% NPFF), rat NPFF2 [6]: 100 % NPFF
- Emax, total IP release ([9]; NPFF1 + Gq/Gz chimera): approximately 1500 % basal
- Emax, total IP release ([9]; NPFF1 alone): approximately 200 % basal
- inward current response ([10]; 1 μM, holding potential −80 mV): robust inward currents
- threshold for activation of inward current [10]: 30 nM
- effect on mean arterial blood pressure (MAP) [11]: transient increase
- disappearance time of bladder contractions ([12]; 0.3 to 3.0 mg/kg): dose-dependently increased
- effect on distension-induced rhythmic contractions of the bladder ([12]; fPP 0.1 mg/kg): inhibited
- EC50 [8]: 9.3 nM
- Maximum Effect (% NPFF), rat NPFF1 ([8]; COS-7 cells): 100 % NPFF

— patent US7276339B2 (H. Lundbeck A/S, priority 1998, dated 2007)
